In paper PMC10731658 (Chemical Research in Toxicology, 2023):

How the values were obtained:
[1] = test system: HepG2 cells; assay: Colorimetric MTT cell viability assay, 24 h; settings: read-out: IC50 (cytotoxicity, MTT assay), 24 h incubation
[2] = Colorimetric MTT cell viability assay, 24 h; settings: human, HepG2 cells, IC50 (cytotoxicity, MTT assay), 24 h incubation
[3] = test system: HepG2 cells; assay: Flow cytometric detection of cell death (Annexin V & Dead Cell Assay); type: cell-based, human; settings: IC50 concentration
Source text: 2. Flow cytometric detection of cell death
The microcapillary flow cytometry (Muse™ Cell Analyzer, Luminex, Austin, TX) was used to determine cell death.
This method is based on detecting externalization of phosphatidylserine on the surface of cells undergoing apoptosis.
The technique allows quantitative analysis of non-apoptotic, early apoptotic, late apoptotic, and necrotic cells. The reagent mixture also contains the membrane non-permeable dye 7-aminoactinomycin D. This component distinguishes necrotic and late apoptotic cells from the live and early apoptotic cells. The measurement of cell death was carried out according to manufacturer instructions after 1, 4, and 24 h incubation with tested oxime reactivators and with oxime-free medium as an untreated control. During the first day of the experiment, cells were seeded into a 24-well plate (TPP) with a density of […]. After the incubation, cells from each well were collected into the polystyrene tube (TPP) and centrifuged for 5 min at 1000 × g at room temperature. The supernatant was discarded. The cell suspensions […]
were prepared in fresh medium DMEM. Afterward 100 μL of cell suspension were mixed with the 100 μL of Muse™ Annexin V & Dead Cell Assay reagent, and the samples were incubated for 20 min at room temperature in the dark.
Per measurement, 5000 cells were analyzed. Each experiment was performed in triplicates and repeated three independent times. The concentration of K048, K074, K075, and K203 oximes and TBHP (positive control) used in […]
After 1 h of incubation (Figure S-1.) with tested oxime reactivators and TBHP as the positive control, the percentage […]
A significant change in the percentage of
The amount of early apoptotic cells
. On the other hand, the percentage of late apoptotic cells was […]
control cells. The count of late apoptotic cells enlarged by 7.74, 4.71 , 4.17, 4.13, and 3.20 %, respectively. The statistical differences were also found in the percentage of necrotic cells in this time interval. The highest increment […]
K048, K074, K075, and K203 groups when compared with control.
K075, and K203 treated groups, respectively, when compared with control. Finally, the percentage of necrotic cells […]
Fig. S-1 The percentage of intact (white column), early (light grey column), late apoptotic (dark grey column), and necrotic HepG2 cells (black column) determined using microcapillary flow cytometry after 1 h, 4 h and 24 h treatment with oxime acetylcholinesterase reactivators or TBHP (positive control). Control represents the cells incubated with an oxime-free culture medium. One-way analysis of variance (ANOVA) followed by Dunnetʼs multiple comparison test was used for statistical analysis by GraphPad Prism 9 software version 9.3.0. Data are expressed as means ± standard deviation (SD) of three independent measurements (n = 3). Significant differences between oxime-treated and untreated control groups (p ≤ 0.05) and marked by asterisk (*).
3. Stability of oximes in DMEM medium at 37 °C over 24 hours
The stability of oximes K048, K074, K075, and K203 in DMEM medium, with concentrations corresponding to their […]
UV, following the chromatographic conditions described by Vanova et al. (2021)13. The results over the tested time […]
Fig. S-2 Data are expressed in percentage as means ± standard deviation (SD) of three independent measurements […]

[4] = test system: HepG2 cells; settings: combined exposure with TBHP (IC50 concentration); oximes about 10-fold below IC50; cited from earlier work
[5] = test system: rat plasma; settings: in vivo; cited from earlier work

SMILES	IC50 [1] [mM]	IC50 at 24 h [2] [mM]	decrease in percentage of intact (live) cells vs control ([3]; 1 h) [%]	increase in early apoptotic cells vs control ([3]; 1 h)	increase in late apoptotic cells vs control ([3]; 1 h) [%]	increase in necrotic cells vs control ([3]; 1 h) [%]	decrease in percentage of live cells vs control ([3]; 4 h) [%]	increase in early apoptotic cells vs control ([3]; 4 h) [%]	increase in late apoptotic cells vs control ([3]; 4 h) [%]	increase in necrotic cell population vs control ([3]; 4 h) [%]	decrease in percentage of intact cells vs control ([3]; 24 h) [%]	increase in early apoptotic cells vs control ([3]; 24 h) [%]	increase in late apoptotic cells vs control ([3]; 24 h) [%]	increased production of ROS [4] [%]	signs of oxidative stress (TBARS, superoxide dismutase activity) [5]
O/N=C/c1cc[n+](CCCC[n+]2ccc(/C=N/O)cc2)cc1 [K074, 1,1′-(butane-1,4-diyl)bis(4((hydroxyimino)methyl)pyridine-1-ium) dibromide]	27.2	~27	~8.85	~2.45%	4.71	1.69	8.3	4.17	3.47	0.67	45.5	14.1	31.3	16	–
NC(=O)c1cc[n+](CCCC[n+]2ccc(C=NO)cc2)cc1.[Br-].[Br-] [K048, 4-carbamoyl-1-(4-(4-((hydroxyimino)methyl)pyridin-1-ium-1-yl)butyl)pyridin-1-ium dibromide]	30.6	~30	~9.71	about 5.05%	4.17	–	11.2	5.72	4.35	1.17	45.6	18.2	26.2	25	no signs of oxidative stress
